One experiment deals with Aβ(1-8). Nature of the experiment: SPR binding kinetics to immobilized Aβ(1-8). Conditions: SPR Biacore X, PBS, 25°C, global fit, scFv-IC16 Langmuir 1:1 model, IC16 bivalent model, ± standard error, SEM. As for the experimental part:
(§1) Binding kinetics were determined by SPR using a Biacore™ X (GE Healthcare, UK). Synthetic Aβ peptides were dissolved in 10 mM NaAc, pH 4.0. The CM5 sensor chip surface (GE Healthcare, UK) was activated using N-ethyl-N′-3 […] carbodiimide (EDC) and N-hydroxysuccinimide (NHS) chemistry followed by 2-(2-pyridinyldithio)ethaneamine hydrochloride (PDEA), in order to introduce a reactive thiol group. Aβ was coupled via the C-terminal cysteine to the chip at a flow rate of 5 µl/min, and the remaining active groups were blocked by injecting cysteine. The immobilization procedure was performed according to manufacturer’s recommendation. All kinetic analyses were performed at a flow rate of 20 µl/min in PBS. Varying concentrations of scFv-IC16 (10 to 5000 nM) and IC16 (10 to 1000 nM) were injected. […] When required, the surface was regenerated by injecting 20 µl 50 mM glycine, pH 11.0. The data evaluation was performed using Biaevaluation Software 4.1.1. ScFv-IC16 data were fitted according to the Langmuir 1∶1 binding model, whereas IC16 data were fitted according to the bivalent binding model. Standard errors of equilibrium dissociation constants (KD) were calculated using standard errors of the corresponding association and dissociation rate constants.
(In general: In SPR one partner is held on a chip, and binding of the other changes the refractive index at the surface.)

Another experiment has as its system Aβ(2-8). Nature of the experiment: SPR binding kinetics to immobilized Aβ(2-8). Conditions: SPR Biacore X, CM5 chip, PBS, 25°C, global fit; scFv-IC16 Langmuir 1:1 model, IC16 bivalent model; ± standard error; SEM. As for the experimental part: as §1
The subject of a further experiment is Aβ(3-8). In words: SPR binding kinetics to immobilized Aβ(3-8). To be noted: SPR Biacore X, CM5 chip, PBS, 25°C, global fit; scFv-IC16 Langmuir 1:1 model, IC16 bivalent model; ± standard error; SEM. As for the experimental part:
as §1

The next experiment has as its target Aβ(pE3-8). Nature of the experiment: SPR binding kinetics to immobilized Aβ(pE3-8). Conditions: SPR Biacore X, CM5 chip, PBS, 25°C, global fit, IC16 bivalent model. As for the experimental part:
as §1

For another experiment, the system named is Aβ(8-15). In words: SPR binding kinetics to immobilized Aβ(8-15). As for the experimental part: as §1

For the substance “IC16: monoclonal IgG2a antibody recognizing Aβ(1-8), from hybridoma of mouse immunized with KLH Aβ(1-16)”, the k on in the experiment with Aβ(1-8) (Aβ peptide coupled via C-terminal cysteine to CM5 chip, 20 µl/min) was 3.5±0.02×10^4 M^-1 s^-1; with Aβ(2-8), 4.85±0.01×10^4 M^-1 s^-1; in the experiment with Aβ(3-8), 4.17±0.006×10^4 M^-1 s^-1; in the experiment on Aβ(pE3-8) (± standard error, SEM), 4.21±0.008×10^4 M^-1 s^-1. Further, the k off was 1.8±0.02×10^−3 s^-1 in the experiment on Aβ(1-8) (CM5 chip); 1.54±0.006×10^−3 s^-1 in the experiment with Aβ(2-8); 3.43±0.007×10^−3 s^-1 in the experiment on Aβ(3-8); 63±0.05×10^−3 s^-1 in the experiment on Aβ(pE3-8) (± standard error, SEM). For the same substance, at Aβ(pE3-8) (n.d. = no detectable binding (footnote)), the Kd was found to be 1500 nM. Besides, the “interaction with Aβ(8-15)” value with Aβ(8-15) is “No interaction”.

The values are drawn from publication PMC3608532, “Characterization of a Single-Chain Variable Fragment Recognizing a Linear Epitope of Aβ: A Biotechnical Tool for Studies on Alzheimer’s Disease?” (PLoS ONE, 2013).
